Here are results for 1 compound from patent US20010014737A1, “Vitronectin receptor antagonist” (priority 1997, published 2001).

The target of this experiment is T1, ανβ3 (the vitronectin receptor) (Homo sapiens, UniProt P05106+P06756).
T1 construct: Human placenta or human platelet ανβ3 (0.1-0.3 mg/mL) in buffer T; from tissue; host or cells: human placenta or human platelets
The experiment in a line: Solid-Phase [3H]-SK&F-107260 Binding to ανβ3 (inhibition of vitronectin binding). As to conditions: read-out: inhibits [3H]-SK&F-107260 binding to ανβ3 at a concentration. As to the method: Inhibition of vitronectin binding
Solid-Phase [^3H]-SK&F-107260 Binding to ανβ3: Human placenta or human platelet ανβ3 (0.1-0.3 mg/mL) in buffer T (containing 2 mM CaCl2 and 1% octylglucoside) was diluted with buffer T containing 1 mM CaCl2, 1 mM MnCl2, 1 mM MgCl2 (buffer A) and 0.05% NaN3, and then immediately added to 96-well ELISA plates (Corning, New York, N.Y.) at 0.1 mL per well. 0.1 - 0.2 μg of ανβ3 was added per well. The plates were incubated overnight at 4° C. At the time of the experiment, the wells were washed once with buffer A and were incubated with 0.1 mL of 3.5% bovine serum albumin in the same buffer for 1 hr at room temperature. Following incubation the wells were aspirated completely and washed twice with 0.2 mL buffer A. […]
The plates were incubated for 1 hr at room temperature. […] The receptors were solubilized with 0.1 mL of 1% SDS and the bound f^3H]-SK&F-107260 was determined by liquid scintillation counting with the addition of 3 mL Ready Safe in a Beckman LS Liquid Scintillation Counter, with 40% efficiency. Nonspecific binding of [^3H]-SK&F-107260 was determined in the presence of 2 μM SK&F-107260 and was consistently less than 1% of total radioligand input. […]

T1 sequence (P06756 31-889 limits assumed): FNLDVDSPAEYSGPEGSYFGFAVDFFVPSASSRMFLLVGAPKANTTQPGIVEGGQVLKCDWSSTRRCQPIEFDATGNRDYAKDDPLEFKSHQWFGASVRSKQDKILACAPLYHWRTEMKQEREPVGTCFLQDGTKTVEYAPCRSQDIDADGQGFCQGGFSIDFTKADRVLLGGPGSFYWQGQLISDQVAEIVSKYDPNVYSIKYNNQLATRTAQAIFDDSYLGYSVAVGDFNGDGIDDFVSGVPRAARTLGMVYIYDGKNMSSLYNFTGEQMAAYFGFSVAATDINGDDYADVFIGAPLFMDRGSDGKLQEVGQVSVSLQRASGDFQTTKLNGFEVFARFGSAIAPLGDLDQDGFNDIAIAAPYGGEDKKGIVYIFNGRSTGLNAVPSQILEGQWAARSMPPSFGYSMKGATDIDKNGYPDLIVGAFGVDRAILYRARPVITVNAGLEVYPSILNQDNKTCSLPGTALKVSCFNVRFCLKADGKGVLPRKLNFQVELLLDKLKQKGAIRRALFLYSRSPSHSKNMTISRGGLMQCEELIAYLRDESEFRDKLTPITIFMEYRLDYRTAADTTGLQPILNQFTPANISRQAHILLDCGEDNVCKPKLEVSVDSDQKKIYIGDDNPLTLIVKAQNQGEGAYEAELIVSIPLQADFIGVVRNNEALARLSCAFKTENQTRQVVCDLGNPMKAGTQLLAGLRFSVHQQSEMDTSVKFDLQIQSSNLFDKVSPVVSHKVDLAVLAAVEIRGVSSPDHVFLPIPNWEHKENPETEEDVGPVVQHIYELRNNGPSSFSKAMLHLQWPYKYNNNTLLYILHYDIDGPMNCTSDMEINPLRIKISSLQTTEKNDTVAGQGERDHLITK
T1 sequence (P06756 891-1048 partner limits assumed): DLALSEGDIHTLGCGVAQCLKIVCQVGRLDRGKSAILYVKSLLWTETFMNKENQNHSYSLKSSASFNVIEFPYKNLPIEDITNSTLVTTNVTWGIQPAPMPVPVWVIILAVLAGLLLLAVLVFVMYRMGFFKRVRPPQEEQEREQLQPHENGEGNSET
T1 sequence (P05106 27-788): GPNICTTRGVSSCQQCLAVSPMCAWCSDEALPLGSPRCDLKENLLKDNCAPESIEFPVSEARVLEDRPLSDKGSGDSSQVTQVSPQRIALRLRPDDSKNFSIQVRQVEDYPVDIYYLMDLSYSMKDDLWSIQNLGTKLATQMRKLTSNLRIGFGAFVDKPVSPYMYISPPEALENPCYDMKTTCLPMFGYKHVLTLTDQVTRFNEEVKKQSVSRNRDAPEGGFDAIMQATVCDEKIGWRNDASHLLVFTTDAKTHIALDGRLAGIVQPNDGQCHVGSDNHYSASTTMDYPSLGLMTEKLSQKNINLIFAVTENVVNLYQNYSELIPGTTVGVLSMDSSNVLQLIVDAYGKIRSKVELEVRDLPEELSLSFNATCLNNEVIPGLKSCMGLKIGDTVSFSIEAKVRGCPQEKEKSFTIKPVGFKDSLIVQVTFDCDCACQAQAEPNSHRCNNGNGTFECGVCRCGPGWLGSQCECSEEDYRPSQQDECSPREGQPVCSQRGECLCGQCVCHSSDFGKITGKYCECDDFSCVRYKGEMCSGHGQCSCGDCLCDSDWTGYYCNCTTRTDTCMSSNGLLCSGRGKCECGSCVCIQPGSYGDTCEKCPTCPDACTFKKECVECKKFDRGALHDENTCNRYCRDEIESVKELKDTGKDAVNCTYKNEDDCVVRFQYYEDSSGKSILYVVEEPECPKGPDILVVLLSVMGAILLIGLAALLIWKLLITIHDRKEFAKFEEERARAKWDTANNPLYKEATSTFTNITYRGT

Turning to `Cc1ccnc(NCCCOc2ccc3c(c2)CN(Cc2ccc(C(F)(F)F)cc2)C(=O)[C@H](CC(=O)O)C3)c1` [Example 1, (S)-8-[3-(4-methylpyridin-2-ylamino)-1-propyloxy]-3-oxo-2-[4-(trifluoromethyl)benzyl]-2,3,4,5-tetrahydro-1 H-2-benzazepine-4-acetic acid], the IC50 is about 3 nM.
